Test results taken from US7452865B2, “Antagonistic analogs of GH RH (2003)” (The Administrare's of the Tulane Educational Fund, priority 2004, dated 2008).

System: hGH-RH(1-29)NH2 induced GH release
Test: Inhibition of GH release in superfused rat pituitary system
Format: cell-based
Conditions: antagonist 30 nM; for GH response (% of control) 0 min: 1 nM hGH-RH(1-29)NH2 at 0 min; for GH response (% of control) 30 min: 1 nM hGH-RH(1-29)NH2 at 30 min; for GH response (% of control) 60 min: 1 nM hGH-RH(1-29)NH2 at 60 min; for GH response (% of control) 90 min: 1 nM hGH-RH(1-29)NH2 at 90 min; for GH response (% of control) 120 min: 1 nM hGH-RH(1-29)NH2 at 120 min
Description: The analogs were tested in vitro in a test described earlier (S. Vigh and A. V Schally, Peptides 5:241-[…], 1984) with modification (Z. Rekasi and A. V. Schally, P.N.A.S. 90:2146-2149, 1993).
Briefly, the cells are preincubated with peptides for 9 minutes (3 mL) at various concentrations. Immediately after the incubation, 1 nM hGH-RH(1-29)NH2 is administered for 3 minutes (1 mL) 10 minute response). To check the duration of the antagonistic effect of the analogue, 1 nM hGH-RH(1-29)NH2 is applied 30, 60, 90, and 120 minutes later for 3 minutes [30, 60, 90, 120 min responses]. Net integral values of the GH responses are evaluated. GH responses are compared to and expressed as percent of the original GH response induced by 1 nM GH-RH(1-29)NH2 The effect of the new antagonists are compared to that of [Ac-Tyr^1, D-Arg^2]hGH-RH(1-29)NH2, the “Standard antagonist”.
Rat GH levels in aliquots of undiluted and diluted superfusion samples were measured by double-antibody radioimmunoassay using materials supplied by the National Hormone and Pituitary Program, Baltimore, Md. The results of RIA were analyzed with a computer program developed in our institute (V. Csernus and A. V. Schally, in Neuroendocrine Research Methods, Harwood Academic (Greenstein, B. D. ed., London, pp. 71-109, 1991), hereby incorporated by reference.

Substance	GH response (% of control) 0 min	GH response (% of control) 30 min	GH response (% of control) 60 min	GH response (% of control) 90 min	GH response (% of control) 120 min
[PhAc-Tyr^1, D-Arg^2, Phe(pCl)^6, D-Ala^8, Arg^9, Abu^15, Nle^27, D-Arg^28, Har^29]hGH-RH(1-29)NH2 [Peptide 26]	20 % of control	43 % of control	66 % of control	48 % of control	44 % of control
[HOOC(CH2)10CO-Tyr^1, D-Arg^2, Phe(pCl)^6, Arg^9, Abu^15, Nle^27, D-Arg^28, Har^29]hGH-RH(1-29)NH2 [Peptide 9]	47 % of control	43 % of control	66 % of control	63 % of control	58 % of control
[CH3(CH2)12CO-Tyr^1, D-Arg^2, Phe(pCl)^6, Arg^9, Abu^15, Nle^27, D-Arg^28, Har^29]hGH-RH(1-29)NH2 [Peptide 10]	60 % of control	30 % of control	36 % of control	37 % of control	44 % of control
[Hca-Tyr^1, D-Arg^2, Phe(pCl)^6, Har, Tyr(Me)^10, Abu^15, Nle^27, D-Arg^28, Har^29, Har^30]hGH-RH(1-30)NH2 [Peptide 53]	43 % of control	42 % of control	40 % of control	36 % of control	46 % of control
[CH3(CH2)14CO-Tyr^1, D-Arg^2, Phe(pCl)^6, Arg^9, Abu^15, Nle^27, D-Arg^28, Har^29]hGH-RH(1-29)NH2 [Peptide 12]	35 % of control	30 % of control	35 % of control	51 % of control	43 % of control
[PhAc-Tyr^1, D-Arg^2, Phe(pCl)^6, Arg^9, Abu^15, Nle^27, D-Arg^28, Har^29]hGH-RH(1-29)NHEt [Peptide 48]	22 % of control	21 % of control	44 % of control	44 % of control	47 % of control
[PhAc-D-Arg^0, D-Arg^2, Phe(pCl)^6, Arg^9, Abu^15, Nle^27, D-Arg^28, Har^29]hGH-RH(1-29)NH2 [Peptide 19]	62 % of control	64 % of control	66 % of control	82 % of control	74 % of control
[HOOC(CH2)4CO-Tyr^1, D-Arg^2, Phe(pCl)^6, Arg^9, Abu^15, Nle^27, D-Arg^28, Har^29]hGH-RH(1-29)NH2 [Peptide 3]	52 % of control	61 % of control	56 % of control	70 % of control	149 % of control
